In test [1] the test system is gastric injury induced by ethanol. Briefly: Gastric ulcers induced by absolute ethanol in rats. It is filed as in vivo, Sprague-Dawley derived male rats. The note with it: for Average (gastric ulceration score 0-4): 30 min before absolute ethanol 1 ml/rat, scored 1 h later, 5 rats. The text has this:
The purpose of this study was to investigate the effect of MIC31 (Citronellol) and its analogues/derivatives on gastric injury induced by ethanol in the rat. Gastric damage was produced by oral administration of absolute ethanol to rats. The severity of the ethanol-induced gastric damage varied considerably within the vehicle-treated group of rats which served as the negative controls.
Animals studied in this example were Sprague-Dawley derived Male Rats from Yung-Min Medical University Laboratory Animal Center. The age of these rats are 7 weeks old. Each group has 5 rats, and their body weight at arrival was 180±10 gm. Upon arrival, heath status of rats will undergo a minimum of one week acclimation period prior to the start of the experiment. At the first day of study, body weights are measured and the animals are grouped according to experiment design. The environmental conditions are listed below:
(10 ml/kg) to a group of 5 Sprague-Dawley derived male rats overnight fasted weighing 180±10 gm at 30 minutes before absolute ethanol challenge (1 ml/rat, P.O.). One hour later, the animals are sacrificed and the stomachs are opened along the greater curvature. Gastric ulceration is scored for degree of hemorrhage and severity of ulcerative lesions as follows: 0=no hyperemia or lesion […], 1=hyperemia, 2=one or two slight lesions, 3=more than two slight lesions, 4=more than two lesions or severe lesions. Reduction of concurrent control score values by 50 percent or more (≧50%) is considered significant. During the experimental phase, body weight will be documented.

The subject of test [2] is Helicobacter pylori-induced ulcers. Briefly: Helicobacter pylori-induced gastric ulceration in mice. The note with it: for Ulceration Score Total: N=5 mice, day 8. It is filed as in vivo, male CD-1 (Crl.) derived mice. As for the experimental part: MIC-31 (Citronellol) and MIC-32 (Geraniol) were evaluated for their abilities to protect mice from the Helicobacter pylori-induced ulcers. MIC-31 was dosed at 50, 25, 12.5 and 6.25 mg/kg, P.O., as well as at 25 and 12.5 mg/kg, I.P. MIC-32 was dosed at 25 and 12.5 mg/kg, P.O. These dosing regimes were administered twice daily for 7 consecutive days beginning with the first dose given at one hour after Helicobacter pylori inoculation. On day 8, Gastric ulceration was scored as 0, 1, 2 or 3 (3 being most severe relative to vehicle control) according to the degree of hemorrhage and severity of lesions on the gastric mucosa. MIC-31 and MIC-32 were dissolved in 2% Tween 80 for oral (P.O.) and in 2% Tween 80/0.9% NaCl for intraperitoneal (I.P.) administration. MIC-31 at doses of 50, 25, 12.5, 6.25 mg/kg (P.O.) and 25, 12.5 mg/kg (I.P.), as well as MIC-32 at 25 and 12.5 mg/kg (P.O.), were administered to test animals twice daily for 7 consecutive days. The dosing volume was 10 ml/kg. Male CD-1 (Crl.) derived mice weighing 24±2 g were provided. Space allocation for 10 animals was 29×18×13 cm. Mice were housed in cages and maintained in a controlled temperature (22° C.-23° C.) and humidity (70%-80%) environment with 12 hours light dark cycles for at least one week prior to use. Free access to standard lab chow for mice and tap water was granted. Groups of 5 male CD-1 (Crl.) derived mice weighing 24±2 g, were fasted for 18 hours prior to intragastric inoculation of Helicobacter pylori in suspension at 9.5×10^9 CFU/0.4 ml/mouse. […] MIC-31 was also dosed intraperitoneally at 25 mg/kg and 12.5 mg/kg, starting also one hour after the Helicobacter pylori inoculation, twice daily for 7 consecutive days. Omeprazole 1 mg/kg and Clarithromycin 10 mg/kg, in combination, were used as positive controls and administered orally to test animals once daily for 7 consecutive days under the same treatment regime. Eight days after infection, all animals were fasted overnight and sacrificed. Each stomach was dissected along the greater curvature. Gastric ulceration was scored at four levels according to the degree of hemorrhage and severity of ulcerative lesions: 0=normal appearance, 1=mild red spots, 2=moderate red spots and/or hemorrhage spots, 3=marked hemorrhage spots. Reduction of ulceration score by 50 percent or more (≧50%) relative to vehicle control score values is considered significant. In addition, blood of each animal was collected from the retro-orbital sinus on day 8 and plasma sample was kept frozen at −80° C. until returned to the sponsor. Tissues of stomach and intestines were removed by surgical excision and immersed in 10% Neutral-Buffer formalin for histopathological examination.

Setting [3] is: Rattus norvegicus, po, 1 h, 30 mg/kg P.O., 30 min before absolute ethanol, >=50% considered significant, read-out: Reduction (%) of ulceration score vs concurrent vehicle control.
The mark [4] stands for this setting: Rattus norvegicus, po, 1 h, 100 mg/kg P.O., 30 min before absolute ethanol, >=50% considered significant, read-out: Reduction (%) of ulceration score vs concurrent vehicle control.
Setting [5] is: Rattus norvegicus, po, 1 h, 300 mg/kg P.O., 30 min before absolute ethanol, >=50% considered significant, read-out: Reduction (%) of ulceration score vs concurrent vehicle control.
Where [6] appears, read: 30 mg/kg P.O., 30 min before absolute ethanol, >=50% considered significant.
The mark [7] stands for this setting: 100 mg/kg P.O., 30 min before absolute ethanol, >=50% considered significant.
[8] abbreviates: 300 mg/kg P.O., 30 min before absolute ethanol, >=50% considered significant.
[9] abbreviates: PO 12.5 mg/kg x 2 x 7 days, score 0-3 each.
The mark [10] stands for this setting: PO 25 mg/kg x 2 x 7 days, score 0-3 each.

Counter-ions that a name gives are not always drawn.

Turning to `CCC(=O)OCCC(C)CCC=C(C)C` (stereo not shown) [MIC-40, Citronellyl propionate], the “Average (gastric ulceration score 0-4)” value stood at 3.4 in test [1] (30 mg/kg P.O.), 2.8 in test [1] (100 mg/kg P.O.) and 1.2 in test [1] (300 mg/kg P.O.). The inhibition in vivo at 30 mg/kg in test [1] (setting [3]) amounted to 6%. Further, the inhibition in vivo at 100 mg/kg in test [1] (setting [4]) was found to be 22%. Further, the inhibition in vivo at 300 mg/kg in test [1] (setting [5]) came to 67%.

As to `CC(C)=CCC[C@@H](C)CCBr` [MIC-43, (R)-(−)-Citronellyl bromide], the figures for the “Average (gastric ulceration score 0-4)” value in test [1] (30 mg/kg P.O.), in test [1] (100 mg/kg P.O.) and in test [1] (300 mg/kg P.O.) were 2.4, 1.6 and 1.6, respectively. Moreover, the inhibition in vivo at 30 mg/kg in test [1] (setting [3]) worked out at 29%. Besides, in test [1] (setting [4]), the inhibition in vivo at 100 mg/kg was found to be 53%. In test [1] (setting [5]), the inhibition in vivo at 300 mg/kg turned out to be 53%.

For the compound `CC(C)=CCCC(C)CCOC(=O)C(C)C` (stereo not shown) [MIC-38, Citronellyl isobutryrate], the results for the “Average (gastric ulceration score 0-4)” value in test [1] (30 mg/kg P.O.), in test [1] (100 mg/kg P.O.) and in test [1] (300 mg/kg P.O.) were 3.2, 1.8 and 1.2, respectively. Further, the “Reduction (%) of ulceration score vs concurrent vehicle control” value (from here on “Reduction (%) of ulceration score”) worked out at 0% in test [1] (setting [6]), 40% in test [1] (setting [7]) and 60% in test [1] (setting [8]).

With `CC(C)=CCC[C@H](C)CCBr` [MIC-36, (s)-(+)-Citronellyl bromide], the “Average (gastric ulceration score 0-4)” value is recorded as 2 in test [1] (30 mg/kg P.O.), 1.4 in test [1] (100 mg/kg P.O.) and 1.6 in test [1] (300 mg/kg P.O.). Also, in test [1] (setting [3]), the inhibition in vivo at 30 mg/kg was determined as 33%. In addition, the inhibition in vivo at 100 mg/kg in test [1] (setting [4]) was found to be 53%. The inhibition in vivo at 300 mg/kg in test [1] (setting [5]) was 47%.

Turning to `COc1ccc2[nH]c([S+]([O-])Cc3ncc(C)c(OC)c3C)nc2c1` (stereo not shown) [Omeprazole, reference compound], the “Average (gastric ulceration score 0-4)” value in test [1] (50 mg/kg P.O.) was determined as 2.2. The inhibition in vivo at 50 mg/kg in test [1] (Rattus norvegicus, po, 1 h, 50 mg/kg P.O., 30 min before absolute ethanol, >=50% considered significant, read-out: Reduction (%) of ulceration score vs concurrent vehicle control) was 39%.

Turning to `CC(C)=CCC/C(C)=C/CO` [MIC-32, Geraniol], the “Ulceration Score Total” value in test [2] (setting [9]) is recorded as 13; in test [2] (setting [10]), 11. Besides, the “% Inhibition of ulceration score vs vehicle” value in test [2] (PO 12.5 mg/kg x 2 x 7 days, >=50% significant (in parentheses)) was found to be 13%; in test [2] (PO 25 mg/kg x 2 x 7 days, >=50% significant (in parentheses)), 27%.

Regarding `CC(C)=CCCC(C)CCO` (stereo not drawn) [MIC-45, (−)-β-Citronellol], the “Average (gastric ulceration score 0-4)” value in test [1] (30 mg/kg P.O.) is 2.6; in test [1] (100 mg/kg P.O.), 1.2; in test [1] (300 mg/kg P.O.), 1.6. The “Reduction (%) of ulceration score” value was determined as 28% in test [1] (setting [6]), 67% in test [1] (setting [7]) and 83% in test [1] (setting [8]).

Turning to `CC(C)=CCCC(C)CCO` (stereo not shown) [MIC-42, Citronellol], the “Average (gastric ulceration score 0-4)” value is 1.6 in test [1] (30 mg/kg P.O.), 0.8 in test [1] (100 mg/kg P.O.) and 1.6 in test [1] (300 mg/kg P.O.). The “Reduction (%) of ulceration score” value in test [1] (setting [6]) is reported as 53%; in test [1] (setting [7]), 76%; in test [1] (setting [8]), 53%.

On to `CC(C)=CCCC(C)CCOC=O` (stereo not shown) [MIC-41, Citronellyl formate], for which the “Average (gastric ulceration score 0-4)” value in test [1] (30 mg/kg P.O.) is 3.2; in test [1] (100 mg/kg P.O.), 1; in test [1] (300 mg/kg P.O.), 1.4. In addition, the inhibition in vivo at 30 mg/kg in test [1] (setting [3]) worked out at 0%. For the same compound, the inhibition in vivo at 100 mg/kg in test [1] (setting [4]) was found to be 69%. Further, the inhibition in vivo at 300 mg/kg in test [1] (setting [5]) turned out to be 56%.

For the compound `CC(=O)OCCC(C)CCC=C(C)C` (stereo not shown) [MIC-39, Citronellyl acetate], the figures for the “Average (gastric ulceration score 0-4)” value in test [1] (30 mg/kg P.O.), in test [1] (100 mg/kg P.O.) and in test [1] (300 mg/kg P.O.) were 2.4, 0.8 and 0.8, respectively. Also, in test [1] (setting [3]), the inhibition in vivo at 30 mg/kg was 20%. The inhibition in vivo at 100 mg/kg in test [1] (setting [4]) is 73%. Besides, in test [1] (setting [5]), the inhibition in vivo at 300 mg/kg stood at 73%.

`CC(C)=CCCC(C)CC(=O)O` (stereo not shown) [MIC-35, Citronellic acid]: the results for the “Average (gastric ulceration score 0-4)” value in test [1] (30 mg/kg P.O.), in test [1] (100 mg/kg P.O.) and in test [1] (300 mg/kg P.O.) were 2, 1.6, and 1.4, respectively. In addition, in test [1] (setting [3]), the inhibition in vivo at 30 mg/kg is 38%. Further, the inhibition in vivo at 100 mg/kg in test [1] (setting [4]) is 50%. In test [1] (setting [5]), the inhibition in vivo at 300 mg/kg was found to be 56%.

Take `CC(C)=CCCC(C)CCO` (stereo not shown) [MIC-31, Citronellol]: the “Ulceration Score Total” value stood at 2 in test [2] (IP 12.5 mg/kg x 2 x 7 days); 8 in test [2] (IP 25 mg/kg x 2 x 7 days); 11 in test [2] (PO 6.25 mg/kg x 2 x 7 days, score 0-3 each); 7 in test [2] (setting [9]); 3 in test [2] (setting [10]); 2 in test [2] (PO 50 mg/kg x 2 x 7 days, score 0-3 each). In addition, the “% Inhibition of ulceration score vs vehicle” value in test [2] (IP 25 mg/kg x 2 x 7 days, >=50% significant) amounted to 47%; in test [2] (PO 6.25 mg/kg x 2 x 7 days, >=50% significant (in parentheses)), 27%. Also, the “Average (gastric ulceration score 0-4)” value in test [1] (30 mg/kg P.O.) came out at 1; in test [1] (100 mg/kg P.O.), 0.4. Also, the “Reduction (%) of ulceration score” value turned out to be 72% in test [1] (setting [6]) and 89% in test [1] (setting [7]). Besides, in test [1] (single oral dose 30 min before alcohol challenge, rats), the “Protecting effect on stomach after challenge with absolute ethanol (in words)” value was “can inhibit the severity degree of hemorrhage and ulcerative lesions in stomach”.

As for `C/C=C(\C)C(=O)OCCC(C)CCC=C(C)C` (stereo not shown) [MIC-44, Citronellyl tiglate], the results for the “Average (gastric ulceration score 0-4)” value in test [1] (30 mg/kg P.O.), in test [1] (100 mg/kg P.O.) and in test [1] (300 mg/kg P.O.) were 2.8, 1.8 and 2.2, respectively. The inhibition in vivo at 30 mg/kg in test [1] (setting [3]) worked out at 22%. Moreover, the inhibition in vivo at 100 mg/kg in test [1] (setting [4]) amounted to 50%. In addition, in test [1] (setting [5]), the inhibition in vivo at 300 mg/kg turned out to be 39%.

The record behind these values is patent publication US20080145409A1, “COMPOSITION FOR THE TREATMENT AND PREVENTION OF PEPTIC ULCER” (priority 2006, published 2008).
